This note sets out measurements from patent publication US11512042B2, “Enamine compounds for absorbance of electromagnetic energy” (Commonwealth Scientific and Industrial Research Organisation, priority 2015, dated 2022).

Values joined by “and” are separate entries in the source; they are usually repeats but may differ in a detail not shown here. Identical values can stand only once.

What all share (type): physicochemical
Data set [1] is described as follows: Photostability protocol: thin film irradiated with xenon arc lamp. To be noted: 1 hour xenon arc lamp; for Photostability: ratio of absorbance at λmax irradiated vs unirradiated, ^a = average of multiple measurements. The protocol: 1 mL of a 3% solution of the test compound (30 mg of test compound in 1 mL solvent) was prepared in a solvent mix made up of 50% EtOH and 25% capric/caprylic triglyceride and 25% C12-C15 alkyl benzoate. 50 μL of this solution (containing 1.5 mg of test compound) was added carefully to the centre of a glass microscope slide and the volatile components left to evaporate in the dark for at least 3 hours to give a liquid film. The prepared films were then exposed for 1 hour to an Eimac 150 W xenon arc lamp filtered through Pyrex (15 Amp supply current, samples 19 cm from the lamp) previously allowed to warm up for 15 minutes prior to sample exposure. The irradiation was performed in a fume cupboard where the air flow was sufficient to keep sample T<30° C. One hour's exposure represented a calculated radiation dose (using meter) of approximately 100 MED.
In order to calculate the photostability of the test compounds, the exposed slides were placed in a beaker and rinsed with 2×5 mL EtOH, 1×5 mL MeOH. The combined washings were then added to a 100 mL volumetric flask and made up to 100 mL total volume with methanol. The UV absorbance was then measured in a 10 mm cuvette. The percent stability is measured as the ratio of absorbance at λmax for the irradiated sample compared to the unirradiated sample.
The thin films are a good surrogate for testing the stability of a candidate in, for example, a sunscreen formulation as they use cosmetic emollients as solvent and are formed at cosmetically relevant concentrations.

The nature of data set [2]: UV absorbance spectrum in solution (λmax, λcrit, extinction coefficients). To be noted: for λcrit: critical wavelength; for E (1%, 1 cm): mass extinction coefficient; for ε: molar extinction coefficient, in M-1 cm-1 (unit assumed). The text has this: (§1) FIG. 1 is a graphical representation of the absorbance of compounds 142 and 143 measured in a 10 mm cuvette as 0.001% solutions in methanol (142 is the uppermost trace at peak point of approximately 330 nm); The synthesised benzoyl functionalised compounds and their spectroscopic properties can be seen in table 2 wherein; breakthrough denotes the value in nm where transmittance increases beyond 1%; steepness refers to the distance in nm over which transmittance increases from 1 to 80% (a higher value indicates a less steep transition from absorbing to transmitting and is generally unfavourable); and ^a denotes an average of multiple measurements. As a general comment, it can be noted that the benzoyl substituted compounds gave similar absorbance maxima to the corresponding trifluoroacetyl derivative.

Data set [3] in a line: % transmission spectrum of 0.1% solution (breakthrough, steepness). To be noted: for Steepness: distance in nm over which transmittance increases from 1 to 80%; for Breakthrough (1% T at 0.1%): value in nm where transmittance increases beyond 1%, 0.1% solution.
From the text: FIG. 2 is a is a graphical representation of the % transmission of compounds 142 and 143 measured in a 2 mm cuvette as 0.1% solutions in methanol (142 is the left most trace);
as §1, with “The” for “FIG. 1 is a graphical representation of the absorbance of compounds 142 and 143 measured in a 10 mm cuvette as 0.001% solutions in methanol (142 is the uppermost trace at peak point of approximately 330 nm); The”

Turning to `CCN(/C=C(\C(=O)C(F)(F)F)c1ccccc1)CC` [Compound 144], in data set [1], the “Photostability (% remains)” value is 97% and the Photostability is reported as 97%. Moreover, in data set [2], the λmax came to 319 nm; the λcrit was 350 nm; the “E (1%, 1 cm)” value is 860; the ε worked out at 23306. Further, in data set [3], the Steepness is on record as 23 nm and the “Breakthrough (1% T at 0.1%)” value came out at 361 nm.
For the compound `CCN(/C=C(\C(C)=O)c1ccccc1)CC` [Compound 149], the “Photostability (% remains)” value in data set [1] came out at 6%. In data set [2], the λmax is 294 nm; the “E (1%, 1 cm)” value is 690; the ε was determined as 14973.
In the same order, the values of `CCOC(=O)/C(=C\N(C)C)c1ccccc1` [Compound 171] are 18%, 291 nm, 1169 and 22598.
On to `CN(/C=C(\C(=O)C(F)(F)F)c1ccccc1)c1ccccc1` [Compound 183], for which, in data set [1], the “Photostability (% remains)” value is reported as 90% and the Photostability came to 90%. In data set [2], the λmax is 332 nm; the λcrit is listed as 367 nm; the “E (1%, 1 cm)” value was found to be 759; the ε was found to be 23153.
On to `CCN(/C=C(\C(=O)C(F)(F)C(F)(F)C(F)(F)F)c1ccccc1)c1ccccc1` [Compound 191], for which the “Photostability (% remains)” value in data set [1] is 95%. Moreover, in data set [2], the λmax was 332 nm; the λcrit amounted to 370 nm; the “E (1%, 1 cm)” value was determined as 452; the ε was determined as 18948.
Turning to `COc1ccc2c(c1)CCN2/C=C(\C(=O)C(F)(F)F)c1ccccc1` [Compound 200], the “Photostability (% remains)” value in data set [1] is 91%. For the same compound, in data set [2], the λmax was determined as 381 nm; the λcrit amounted to 393 nm; the “E (1%, 1 cm)” value amounted to 1004; the ε is 34855.
For `COC(=O)c1ccc2c(c1)CCN2/C=C(\C(=O)C(F)(F)F)c1ccccc1` [Compound 201], in data set [1], the “Photostability (% remains)” value is on record as 97% and the Photostability was 97%. Also, in data set [2], the λmax is 373 nm; the λcrit was determined as 391 nm; the “E (1%, 1 cm)” value turned out to be 1230; the ε is 46134. In data set [3], the Steepness turned out to be 18 nm and the “Breakthrough (1% T at 0.1%)” value came to 420 nm.
For the compound `CCN(/C=C(\C(=O)c1c(F)c(F)c(F)c(F)c1F)c1ccccc1)CC` [Compound 203], in data set [1], the “Photostability (% remains)” value stood at 31%. In addition, in data set [2], the λmax was 319 (broad) nm; the λcrit turned out to be 356 nm; the “E (1%, 1 cm)” value worked out at 611; the ε stood at 22532.
Consider `O=C(/C(=C(/c1ccccc1)N1CCCC1)c1ccccc1)C(F)(F)F` [Compound 204], for which, in data set [1], the “Photostability (% remains)” value came out at 70%. Also, in data set [2], the λmax was 363 nm; the λcrit stood at 387 nm; the “E (1%, 1 cm)” value came out at 358; the ε was found to be 12357.
For the compound `O=C(/C(=C\N1CCCN(/C=C(\C(=O)C(F)(F)F)c2ccccc2)c2ccccc21)c1ccccc1)C(F)(F)F` [Compound 224], in data set [1], the “Photostability (% remains)” value came out at 97%. Besides, in data set [2], the λmax came to 323 nm; the λcrit was 366 nm; the “E (1%, 1 cm)” value came out at 690; the ε was found to be 37546.
Consider `CCCCC(CC)COC(=O)c1ccc(N(/C=C(\C(=O)C(F)(F)F)c2ccccc2)CC)cc1` (stereo not shown) [Compound 227], for which the “Photostability (% remains)” value in data set [1] is recorded as 85%. Further, in data set [2], the λmax came out at 347 nm; the λcrit is on record as 374 nm; the “E (1%, 1 cm)” value is on record as 646; the ε worked out at 30252.
On to `O=C(OCCCOC(=O)c1ccc2c(c1)CCN2/C=C(\C(=O)C(F)(F)F)c1ccccc1)c1ccc2c(c1)CCN2/C=C(\C(=O)C(F)(F)F)c1ccccc1` [Compound 228], for which the “Photostability (% remains)” value in data set [1] came to 95%. In data set [2], the λmax was 374 nm; the λcrit is given as 391 nm; the “E (1%, 1 cm)” value is recorded as 1168; the ε is 89042.
On to `CCOC(=O)C(=O)/C(=C\N1CCc2ccccc21)c1ccccc1` [Compound 231], for which, in data set [1], the Photostability turned out to be 80%. Also, in data set [2], the λmax is on record as 363 nm; the λcrit came out at 388 nm; the “E (1%, 1 cm)” value stood at 989; the ε was found to be 31758. Moreover, in data set [3], the Steepness is on record as 34 nm and the “Breakthrough (1% T at 0.1%)” value is 418 nm.
For `CCCN(/C=C(/C(=O)C(F)(F)F)c1ccccc1)c1ccccc1` [Compound 233], the Photostability in data set [1] was determined as 87%. Further, in data set [2], the λmax worked out at 331 nm; the λcrit amounted to 365 nm; the “E (1%, 1 cm)” value is recorded as 734; the ε amounted to 24467. For the same compound, in data set [3], the Steepness was 36 nm and the “Breakthrough (1% T at 0.1%)” value is 380 nm.
Consider `CCCCN(/C=C(/C(=O)C(F)(F)F)c1ccccc1)c1ccccc1` [Compound 234], for which the Photostability in data set [1] was found to be 87%. Besides, in data set [2], the λmax was determined as 330 nm; the λcrit was 365 nm; the “E (1%, 1 cm)” value came out at 704; the ε amounted to 24440. For the same compound, in data set [3], the Steepness was determined as 31 nm and the “Breakthrough (1% T at 0.1%)” value came out at 381 nm.
For the compound `CCOC(=O)C(=O)/C(=C/N(c1ccccc1)c1ccccc1)c1ccccc1` [Compound 237], in data set [1], the Photostability was 83%. Further, in data set [2], the λmax is given as 348 nm; the λcrit came to 380 nm; the “E (1%, 1 cm)” value is recorded as 775; the ε is reported as 28737. Also, in data set [3], the Steepness is 39 nm and the “Breakthrough (1% T at 0.1%)” value stood at 400 nm.
Turning to `CN(C)/C=C(/C(=O)c1ccccc1)c1ccccc1` [Compound 240], the Photostability in data set [1] stood at 10%. Also, in data set [2], the λmax worked out at 313 nm; the λcrit came out at 361 nm; the “E (1%, 1 cm)” value worked out at 776; the ε was determined as 19475. For the same compound, in data set [3], the Steepness stood at 40 nm and the “Breakthrough (1% T at 0.1%)” value came to 379 nm.
`O=C(/C(=C/N1CCc2ccccc21)c1ccccc1)c1ccccc1` [Compound 243]: the Photostability in data set [1] stood at 70%. Moreover, in data set [2], the λmax is reported as 361 nm; the λcrit turned out to be 386 nm; the “E (1%, 1 cm)” value is 893; the ε came to 29026. In addition, in data set [3], the Steepness stood at 37 nm and the “Breakthrough (1% T at 0.1%)” value was 420 nm.
With `O=C(/C(=C/N(c1ccccc1)c1ccccc1)c1ccccc1)c1ccccc1` [Compound 244], the Photostability in data set [1] stood at 58%. Also, in data set [2], the λmax came to 352 nm; the λcrit is 383 nm; the “E (1%, 1 cm)” value is 536; the ε was 20114. In addition, in data set [3], the Steepness came out at 43 nm and the “Breakthrough (1% T at 0.1%)” value is on record as 407 nm.
Turning to `CCN(/C=C(/C(=O)c1ccccc1)c1ccccc1)c1ccccc1` [Compound 245], the Photostability in data set [1] came out at 55%. For the same compound, in data set [2], the λmax turned out to be 333 nm; the λcrit is 374 nm; the “E (1%, 1 cm)” value stood at 621; the ε is 20292. Moreover, in data set [3], the Steepness came to 40 nm; the “Breakthrough (1% T at 0.1%)” value is 384 nm and 394 nm.
